Test results from paper PMC7580834, “Inhibition mechanism of naphthylphenylamine derivatives acting on the CDC25B dual phosphatase and analysis of the molecular processes involved in the high cytotoxicity exerted by one selected derivative in melanoma cells” (Journal of Enzyme Inhibition and Medicinal Chemistry, 2020).

Key:
Assay type in all cases: cell-based, human
[1] = test system: A2058 cells; experiment: Apoptosis by cytofluorimetry after PI incorporation (subdiploid DNA content); conditions: 5 or 10 µM, 24-72 h
Procedure: (§1) The human melanoma cell lines A375 and A2058, deriving from a primary tumour or lymph nodal metastasis, respectively, were kindly provided from CEINGE (Naples, Italy). Cells were grown in DMEM supplemented with 10% FBS, 2 mM L-glutamine, 100 IU/mL penicillin G and 100 µg/mL streptomycin in humidified incubator at 37 °C under 5% CO2 atmosphere. The cell line BJ-5ta, a human skin fibroblast immortalised with the human telomerase reverse transcriptase[30] was cultured in a 4:1 mixture of DMEM and Medium 199 supplemented with 4 mM L-glutamine, 4.5 g/L glucose, 1.5 g/L sodium bicarbonate, 10% FBS, 100 IU/mL penicillin G, […] streptomycin in humidified incubator at 37 °C under 5% CO2 atmosphere. All cells were split and seeded every 3 days and used during their exponential phase of growth. Cell treatments were usually carried out after 24 h from plating.
(§2) Cytofluorimetric analysis was used to determine the number of apoptotic nuclei essentially as previously described. Briefly, cells were seeded into six-well plates at 3 × 10^5 cells/well and after 24 h were treated with 4a or 0.5% (v/v) DMSO and incubated for different times. Then, cells were harvested with trypsin, and centrifuged, and the pellets were resuspended in 200 µL of a hypotonic lysis solution containing 50 µg/mL PI. After incubation at 4 °C for 30 min, cells were analysed with a FACScan flow cytometer (Becton Dickinson, Franklin Lakes, NJ, USA) to evaluate the presence of nuclei with DNA content lower than diploid.

[2] = test system: A375 cells; experiment: as above; conditions: 5 or 10 µM, 24-72 h
Procedure: as §1, §2

[3] = test system: BJ-5ta cells; experiment: as above; conditions: 10 µM, 24-, 48- or 72-h, nontumorigenic fibroblasts
Procedure: as §1, §2

[4] = test system: caspase-3 in A2058 cells; experiment: Caspase-3 fluorimetric activity assay in cell lysates; conditions: 10 µM, 24 h
Procedure: (§3) The caspase-3 and caspase-9 enzymatic activity was measured by using caspase-3 and -9 fluorimetric assay kits, respectively, according to the manufacturer’s protocol. Briefly, cells were seeded into 75 cm^2 plates (2 × 10^6 cells/plate) and after 24 h treated with 4a or 0.5% (v/v) DMSO for 24 h. At the end of incubation, cells were collected, washed with phosphate-buffered saline constituted by 10 mM Na2HPO4, 2 mM KH2PO4, pH 7.4, supplemented with 137 mM NaCl and 2.7 mM KCl (PBS), and finally lysed at 4 °C in the cell lysis buffer. Cell lysates were incubated with 50 µM DEVD-AFC or LEHD-AFC substrates at 37 °C for 2 h, to detect caspase-3 or caspase-9 activity, respectively, using a Cary Eclipse spectrofluorimeter. Excitation and emission wavelengths were set at 400 nm and 505 nm, respectively; both excitation and emission slits were set at 10 nm.

[5] = test system: caspase-3 in A375 cells; experiment: as above; conditions: 10 µM, 24 h
Procedure: as §3

[6] = test system: cytochrome c in A2058 cells; experiment: Cytochrome c subcellular localisation (immunofluorescence and Western blotting of fractions); conditions: 10 µM, 24 h
Procedure: (§4) To obtain the total protein extract, cells were seeded into 6-well-plates (3 × 10^5 cells/plate) for 24 h at 37 °C and then treated with 4a or 0.5% (v/v) DMSO. After treatment, cells were harvested, washed with PBS, and then lysed in ice-cold modified radio immunoprecipitation assay (RIPA) buffer (50 mM Tris•HCl, pH 7.4, 150 mM NaCl, 1% Nonidet P-40, 0.25% sodium deoxycholate, 1 mM Na3VO4 and 1 mM NaF), supplemented with protease inhibitors and incubated for 30 min on ice. The supernatant, obtained after centrifugation at 13200 g for 30 min at 4 °C, constituted the total protein extract. Protein concentration was determined by the Bradford method, using bovine serum albumin (BSA) as standard. To obtain the cytosolic and mitochondrial fractions, cells were plated at a density of 2 × 10^6 cells/plate for 24 h at 37 °C. After the treatment with 4a or 0.5% (v/v) DMSO, cells were harvested, washed in PBS, and then resuspended in buffer A (5 mM Hepes, pH 7.4, 250 mM mannitol, 0.5 mM EGTA, 0.1% BSA), supplemented with protease inhibitors, and homogenised. The homogenate was centrifuged at 600 g for 5 min at 4 °C and the supernatant was then centrifuged at 10300 g for 10 min at 4 °C. The resulting supernatant represented the cytosolic fraction, whereas the pellet, constituting the mitochondrial fraction was resuspended in RIPA buffer. Protein concentration was determined as previously indicated. Equal amounts of total, cytosolic or mitocondrial protein extracts were used for Western blotting analysis. Briefly, protein samples were dissolved in SDS-reducing loading buffer, run on sodium dodecylsulfate polyacrylamide gel electrophoresis (SDS/PAGE), and then transferred to Immobilon P membrane (Millipore, Saint Louis, MO, USA). The filter was incubated with the specific primary antibody at 4 °C overnight and then with the secondary antibody at room temperature for 1 h. Membranes were then analysed by an enhanced chemiluminescence reaction using WesternBright ECL (Advansta, San Jose, CA, USA) according to manufacturer’s instructions; signals were visualised by autoradiography. The analysis of pAkt protein levels was performed as previously described. Briefly, filters were first incubated with the anti-pAkt primary antibody and then with the secondary antibody and membranes were analysed by an enhanced chemiluminescence reaction as previously indicated. The same filters were then stripped, using AbCam (Cambridge, UK) stripping solution, pH 2 (200 mM glycine, 3.5 mM SDS, 1% Tween-20) at 45 °C for 30 min, washed 3 times with PBS-Tween 0.1%, incubated with anti-Akt primary antibody and then with the relative secondary antibody. Signals were detected as previously specified.
(§5) Immunofluorescence experiments were carried out essentially as previously described. […]

[7] = test system: cytochrome c in A375 cells; experiment: as above; conditions: 10 µM, 24 h
Procedure: as §4, §5

CCOC(=O)c1cccc(Nc2cc(OC)cc3ccccc23)c1 [4a]
apoptosis (cells with a hypodiploid DNA content) [1]: dose- and time-dependent increase | apoptosis (cells with a hypodiploid DNA content) [2]: dose- and time-dependent increase | apoptosis (cells with a subdiploid DNA content) [3]: does not exert any apoptotic effect | enzymatic activity of caspase-3 [4]: statistically significant increase | enzymatic activity of caspase-3 [5]: statistically significant increase | cytochrome c localisation, Western blotting of cytosolic and mitochondrial extracts [6]: significant cytosolic translocation | cytochrome c localisation, immunofluorescence [6]: induces a cytosolic translocation of cytochrome c | cytochrome c localisation, Western blotting of cytosolic and mitochondrial extracts [7]: significant cytosolic translocation | cytochrome c localisation, immunofluorescence [7]: induces a cytosolic translocation of cytochrome c
